Where a SMILES comes first, the peptide text is derived from it. [ ]: non-standard residue; d: D form. The star is where a group is joined. Decanoyl = CCCCCCCCCC(=O)*; Aib = CC(C)(N)C(=O)O
Experiments:
Assay type in all cases: cell-based
human SNAP-tagged GIPR = target: T1, human SNAP-tagged GIPR (Homo sapiens, UniProt P48546); test: Receptor internalization assay, HEK293A cells expressing human SNAP-tagged GIPR; settings: AUC of sigmoid curves up to 1 μM; 60 minutes at 37° C.
T1 construct: host or cells: HEK293A
T1 sequence (P48546 22-466): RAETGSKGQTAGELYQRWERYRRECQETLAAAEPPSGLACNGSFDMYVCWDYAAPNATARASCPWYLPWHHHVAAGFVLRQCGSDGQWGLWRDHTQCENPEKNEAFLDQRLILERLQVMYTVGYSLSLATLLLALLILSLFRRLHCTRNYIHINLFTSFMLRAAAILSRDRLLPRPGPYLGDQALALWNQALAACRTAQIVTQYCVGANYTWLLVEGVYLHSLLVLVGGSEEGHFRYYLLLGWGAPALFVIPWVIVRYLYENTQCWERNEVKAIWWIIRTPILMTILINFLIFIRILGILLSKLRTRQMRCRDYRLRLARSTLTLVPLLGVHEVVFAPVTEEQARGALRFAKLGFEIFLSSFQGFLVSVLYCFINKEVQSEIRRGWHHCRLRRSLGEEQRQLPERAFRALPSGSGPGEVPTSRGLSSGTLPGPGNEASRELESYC

human GLP-1R = target: T2, human GLP-1R (Homo sapiens, UniProt P43220); test: cAMP assay (HitHunter) in transiently transfected COS-7 cells expressing human GLP-1R; settings: for Emax: COS-7, normalized to highest concentration of the endogenous ligand, read-out: Efficacy GLP-1R (Emax)
T2 construct: host or cells: COS-7
T2 sequence (P43220 24-463): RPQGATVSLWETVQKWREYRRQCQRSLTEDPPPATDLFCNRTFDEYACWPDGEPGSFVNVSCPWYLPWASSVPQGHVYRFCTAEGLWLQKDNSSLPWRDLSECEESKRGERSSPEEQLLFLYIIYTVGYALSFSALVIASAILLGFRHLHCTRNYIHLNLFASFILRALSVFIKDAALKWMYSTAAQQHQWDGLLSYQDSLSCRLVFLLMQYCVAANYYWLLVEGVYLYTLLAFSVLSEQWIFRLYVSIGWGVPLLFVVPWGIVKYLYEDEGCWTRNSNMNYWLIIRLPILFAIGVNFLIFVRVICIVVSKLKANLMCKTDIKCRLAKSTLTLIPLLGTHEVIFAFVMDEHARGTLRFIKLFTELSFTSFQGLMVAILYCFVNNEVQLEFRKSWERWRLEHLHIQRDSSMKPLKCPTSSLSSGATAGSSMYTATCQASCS

human GLP-2R = target: T3, human GLP-2R (Homo sapiens, UniProt O95838); test: cAMP assay (HitHunter) in transiently transfected COS-7 cells expressing human GLP-2R; settings: for Emax: COS-7, normalized to highest concentration of the endogenous ligand, read-out: Efficacy GLP-2R (Emax)
T3 construct: host or cells: COS-7
T3 sequence (O95838 1-553): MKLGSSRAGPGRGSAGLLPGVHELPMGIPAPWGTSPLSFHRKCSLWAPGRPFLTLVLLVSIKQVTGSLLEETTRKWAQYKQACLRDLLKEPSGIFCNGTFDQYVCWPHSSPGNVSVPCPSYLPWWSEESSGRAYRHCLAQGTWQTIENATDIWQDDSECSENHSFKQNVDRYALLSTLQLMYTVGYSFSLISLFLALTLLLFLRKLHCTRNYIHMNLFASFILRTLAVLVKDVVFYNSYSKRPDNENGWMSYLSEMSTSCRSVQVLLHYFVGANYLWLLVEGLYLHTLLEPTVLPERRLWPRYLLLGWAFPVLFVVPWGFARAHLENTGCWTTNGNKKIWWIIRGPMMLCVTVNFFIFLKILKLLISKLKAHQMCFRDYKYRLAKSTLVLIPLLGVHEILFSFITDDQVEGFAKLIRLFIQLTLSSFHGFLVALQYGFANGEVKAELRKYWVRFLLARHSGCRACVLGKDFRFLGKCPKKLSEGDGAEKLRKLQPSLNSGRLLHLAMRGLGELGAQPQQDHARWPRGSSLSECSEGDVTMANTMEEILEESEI
Experimental: The next day the assay was initiated by washing with HEPES buffered saline (HBS) and followed by an incubation step with assay buffer (HBS added 1 mM isobutyl-1-methylxanthine (IBMX)) for 30 min at 37° C. The ligands were then added and incubated for an additional 30 min at 37° C. After ligand incubation, the HitHunter® CAMP assay (Eurofins DiscoverX, Fremont, […] USA) was carried out according to the manufacturer's instructions. […] The potencies (EC50 values) were determined by nonlinear regression using GraphPad Prism 9 (San Diego, California, USA). Sigmoid curves were fitted logistically. The efficacies (Emax values) were determined by normalization to the highest concentration applied of the endogenous ligand for each receptor.

human GIPR = target: T4, human GIPR (Homo sapiens, UniProt P48546); test: cAMP assay (HitHunter) in transiently transfected COS-7 cells expressing human GIPR; settings: for Emax: COS-7, normalized to highest concentration of the endogenous ligand, read-out: Efficacy GIPR (Emax)
T4 construct: host or cells: COS-7
T4 sequence (P48546 22-466): T1 sequence (P48546 22-466)

| Absolute hGIPR internalization (AUC) (human SNAP-tagged GIPR) | Emax (human GLP-1R) | Emax (human GLP-2R) | EC50 (human GLP-2R; cAMP, COS-7 cells, human GLP-2R, read-out: EC50 (nM) GLP-2R) | Emax (human GIPR) | EC50 (human GIPR; cAMP, COS-7 cells, human GIPR) | EC50 (human GLP-1R; cAMP, COS-7 cells, human GLP-1R, read-out: EC50 (nM) GLP-1R) | Compound |
| --- | --- | --- | --- | --- | --- | --- | --- |
| 5.3 | 101% | 96% | 2 nM | 93% |  |  | CCCCCCCCCC(=O)NCCCC[C@H](NC(=O)[C@@H](NC(=O)[C@@H](NC(=O)[C@H](CCCCN)NC(=O)[C@@H](NC(=O)[C@H](CCC(N)=O)NC(=O)[C@@H](NC(=O)[C@H](CC(C)C)NC(=O)[C@H](Cc1c[nH]c2ccccc12)NC(=O)[C@H](CC(N)=O)NC(=O)[C@@H](NC(=O)[C@H](Cc1ccccc1)NC(=O)[C@H](CC(=O)O)NC(=O)[C@H](CCCNC(=N)N)NC(=O)[C@H](C)NC(=O)[C@H](C)NC(=O)[C@H](CC(C)C)NC(=O)[C@H](CC(N)=O)NC(=O)[C@H](CC(=O)O)NC(=O)[C@H](CC(C)C)NC(=O)[C@@H](NC(=O)[C@@H](NC(=O)[C@H](CO)NC(=O)[C@H](Cc1ccc(O)cc1)NC(=O)[C@H](CC(=O)O)NC(=O)[C@H](CO)NC(=O)[C@@H](NC(=O)[C@H](Cc1ccccc1)NC(=O)[C@@H](NC(=O)CNC(=O)[C@H](CC(=O)O)NC(=O)C(C)(C)NC(=O)[C@@H](N)Cc1c[nH]cn1)[C@@H](C)O)[C@@H](C)CC)[C@@H](C)O)[C@@H](C)CC)[C@@H](C)CC)[C@@H](C)CC)[C@@H](C)O)[C@@H](C)CC)[C@@H](C)O)C(N)=O [Compound 1] |
|  | 59% | 93% |  | 99% | 1 nM |  | CCCCCCCCCC(=O)NCCCC[C@H](NC(=O)[C@@H](NC(=O)[C@@H](NC(=O)[C@H](CCCCN)NC(=O)[C@@H](NC(=O)[C@H](CCC(N)=O)NC(=O)[C@@H](NC(=O)[C@H](CC(C)C)NC(=O)[C@H](Cc1c[nH]c2ccccc12)NC(=O)[C@H](CC(N)=O)NC(=O)[C@@H](NC(=O)[C@H](Cc1ccccc1)NC(=O)[C@H](CC(=O)O)NC(=O)[C@H](CCCNC(=N)N)NC(=O)[C@H](C)NC(=O)[C@H](C)NC(=O)[C@H](CC(C)C)NC(=O)[C@H](CC(N)=O)NC(=O)[C@H](CC(=O)O)NC(=O)[C@H](CC(C)C)NC(=O)[C@@H](NC(=O)[C@@H](NC(=O)[C@H](CO)NC(=O)[C@H](Cc1ccc(O)cc1)NC(=O)[C@H](CC(=O)O)NC(=O)[C@H](CO)NC(=O)[C@@H](NC(=O)[C@H](Cc1ccccc1)NC(=O)[C@@H](NC(=O)CNC(=O)[C@H](CC(=O)O)NC(=O)C(C)(C)NC(=O)[C@@H](N)Cc1ccc(O)cc1)[C@@H](C)O)[C@@H](C)CC)[C@@H](C)O)[C@@H](C)CC)[C@@H](C)CC)[C@@H](C)CC)[C@@H](C)O)[C@@H](C)CC)[C@@H](C)O)C(N)=O [Compound 16] (H-Y[Aib]DGTFISDYSTILDNLAARDFINWLIQTKITK(Decanoyl)-NH2; N-terminus assumed) |
|  | 107% | 92% |  | 97% |  |  | CCCCCCCCCC(=O)N[C@@H](CCC(=O)NCCCC[C@H](NC(=O)[C@@H](NC(=O)[C@@H](NC(=O)[C@H](CCCCN)NC(=O)[C@@H](NC(=O)[C@H](CCC(N)=O)NC(=O)[C@@H](NC(=O)[C@H](CC(C)C)NC(=O)[C@H](Cc1c[nH]c2ccccc12)NC(=O)[C@H](CC(N)=O)NC(=O)[C@@H](NC(=O)[C@H](Cc1ccccc1)NC(=O)[C@H](CC(=O)O)NC(=O)[C@H](CCCNC(=N)N)NC(=O)[C@H](C)NC(=O)[C@H](C)NC(=O)[C@H](CC(C)C)NC(=O)[C@H](CC(N)=O)NC(=O)[C@H](CC(=O)O)NC(=O)[C@H](CC(C)C)NC(=O)[C@@H](NC(=O)[C@@H](NC(=O)[C@H](CO)NC(=O)[C@H](Cc1ccc(O)cc1)NC(=O)[C@H](CC(=O)O)NC(=O)[C@H](CO)NC(=O)[C@@H](NC(=O)[C@H](Cc1ccccc1)NC(=O)[C@@H](NC(=O)CNC(=O)[C@H](CC(=O)O)NC(=O)C(C)(C)NC(=O)[C@@H](N)Cc1c[nH]cn1)[C@@H](C)O)[C@@H](C)CC)[C@@H](C)O)[C@@H](C)CC)[C@@H](C)CC)[C@@H](C)CC)[C@@H](C)O)[C@@H](C)CC)[C@@H](C)O)C(N)=O)C(=O)O [Compound 17] |
| 2.1 | 112% | 91% |  | 82% |  | 0.06 nM | CC[C@H](C)[C@H](NC(=O)[C@H](Cc1ccccc1)NC(=O)[C@H](CC(=O)O)NC(=O)[C@H](CCCCNC(=O)COCCOCCNC(=O)COCCOCCNC(=O)CC[C@H](NC(=O)CCCCCCCCCCCCCCCCC(=O)O)C(=O)O)NC(=O)[C@H](C)NC(=O)[C@H](C)NC(=O)[C@H](CC(C)C)NC(=O)[C@H](CC(N)=O)NC(=O)[C@H](CC(=O)O)NC(=O)[C@H](CC(C)C)NC(=O)[C@@H](NC(=O)[C@@H](NC(=O)[C@H](CO)NC(=O)[C@H](Cc1ccc(O)cc1)NC(=O)[C@H](CC(=O)O)NC(=O)[C@H](CO)NC(=O)[C@@H](NC(=O)[C@H](Cc1ccccc1)NC(=O)[C@@H](NC(=O)CNC(=O)[C@H](CC(=O)O)NC(=O)[C@H](C)NC(=O)[C@@H](N)Cc1c[nH]cn1)[C@@H](C)O)[C@@H](C)O)[C@@H](C)O)[C@@H](C)CC)C(=O)N[C@@H](CC(N)=O)C(=O)N[C@@H](Cc1c[nH]c2ccccc12)C(=O)N[C@@H](CC(C)C)C(=O)N[C@H](C(=O)N[C@@H](CCC(N)=O)C(=O)N[C@H](C(=O)N[C@@H](CCCCN)C(=O)NCC(=O)N[C@@H](CCCCN)C(=O)N[C@@H](CCCCN)C(=O)O)[C@@H](C)O)[C@@H](C)CC [Compound 18] |

From patent US20250304644A1, “PEPTIDES TRIPLE AGONISTS OF GIP, GLP-1 AND GLP-2” (BAINAN BIOTECH APS, priority 2021, published 2025)
